Experimental data published in patent publication US20260092061A1, “COMPOUNDS FOR TARGETED PROTEIN DEGRADATION” (Amphista Therapeutics Limited, priority 2022, published 2026).

Tests used:
BRD9 [1] = target: T1, BRD9 (Homo sapiens, UniProt Q9H8M2); assay: Degradation of BRD9 (IF), immunofluorescence in MV4-11 cells, 24 hours (Assay Protocol 2); assay type: cell-based; set-up: A suspension of MV4-11 cells (ATCC CRL-9591) was prepared; host or cells: MV4-11
T1 sequence (Q9H8M2 1-597): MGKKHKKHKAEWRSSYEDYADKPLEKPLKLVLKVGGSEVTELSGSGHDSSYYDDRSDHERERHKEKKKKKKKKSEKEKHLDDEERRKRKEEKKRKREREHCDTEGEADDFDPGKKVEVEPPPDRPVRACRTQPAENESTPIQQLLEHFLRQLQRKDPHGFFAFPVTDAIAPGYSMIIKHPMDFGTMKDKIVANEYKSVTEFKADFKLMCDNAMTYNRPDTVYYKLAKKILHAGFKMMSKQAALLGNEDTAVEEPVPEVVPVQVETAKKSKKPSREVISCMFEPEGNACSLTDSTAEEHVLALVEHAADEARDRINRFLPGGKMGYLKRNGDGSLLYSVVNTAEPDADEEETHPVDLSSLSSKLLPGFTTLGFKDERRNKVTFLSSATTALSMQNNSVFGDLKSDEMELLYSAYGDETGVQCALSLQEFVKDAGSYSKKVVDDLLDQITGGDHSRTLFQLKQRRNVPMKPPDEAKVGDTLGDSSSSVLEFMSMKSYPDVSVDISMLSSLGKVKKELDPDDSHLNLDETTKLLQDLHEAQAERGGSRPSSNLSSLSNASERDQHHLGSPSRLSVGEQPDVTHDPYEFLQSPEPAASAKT
Outline: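 % BRD9 remaining, scaled between DMSO (high) and 100 nM CFT-8634 (low) control wells, derives from mean Alexa 647 contrast in central nuclei by high-content imaging. MV4-11 cells had 24 h compound exposure at 37° C. before PFA fixation, Triton permeabilisation and anti-BRD9 E4Q3F immunostaining.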

BRD9 [2] = target: T1, BRD9; assay: BRD9 degradation, HiBiT-BRD9 KI HEK293 (LgBiT) cells, NanoGlo Lytic Endpoint assay (Assay Protocol 1); assay type: cell-based; settings: BRD9 degradation; for Dmax / Dmax at 1 µM: HEK293; for Dmax at 1 µM: 1 μM compound at 6 h of treatment, read-out: Assay 1 Dmax
Outline: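 HiBiT-tagged BRD9 knock-in HEK293 (LgBiT) cells exposed to compounds for 6 h at 37 °C, 5% CO2. Residual BRD9 measured by HiBiT lytic luminescence. % BRD9 remaining normalised to DMSO-treated cells (high) and no-cell wells (low).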

[3] = Assay protocol 2, BRD9 degradation, read-out: DC50
[4] = MV4-11, Assay protocol 2, BRD9 degradation, read-out: Dmax
[5] = Assay protocol 1, read-out: DC50
[6] = Assay protocol 1, read-out: Dmax
[7] = MV4-11, 24 h, Table 2, BRD9 degradation (IF), Assay Protocol 2, MV4-11 cells, read-out: Assay 2 DCmax
[8] = Table 2, BRD9 degradation (IF), Assay Protocol 2, MV4-11 cells, read-out: Assay 2 DC50
[9] = Table 2, Assay Protocol 1, 6 h of treatment, read-out: Assay 1 DC50
[10] = MV4-11, Table 4, BRD9 degradation, determined according to Assay Protocol 2, read-out: Dmax^2
[11] = Table 4, BRD9 degradation, determined according to Assay Protocol 2, read-out: DC50^2
[12] = Table 4, determined according to Assay Protocol 1, read-out: DC50^1
[13] = Table 4, determined according to Assay Protocol 1, read-out: Dmax^1

Structure (SMILES) | DC50 (BRD9 [1]; [3]) [nM] | Dmax (BRD9 [1]; [4]) [%] | DC50 (BRD9 [2]; [5]) [nM] | Dmax (BRD9 [2]; [6]) [%] | Dmax (BRD9 [1]; [7]) [%] | Dmax at 1 µM (BRD9 [2]; Table 2, Assay Protocol 1) [%] | DC50 (BRD9 [2]; [9]) [nM] | other results
CCCC(c1ccccc1CCC(=O)N1CCN(Cc2c(OC)cc(-c3cn(C)c(=O)c(C)c3C)cc2OC)CC1)N(C)C(=O)/C(C#N)=C/c1nccs1 (mixture of isomers) [Compound B186, (E/Z)-2-cyano-N-(1-(2-(3-(4-(2,6-dimethoxy-4-(1,4,5-trimethyl-6-oxo-1,6-dihydropyridin-3-yl)benzyl)piperazin-1-yl)-3-oxopropyl)phenyl)butyl)-N-methyl-3-(thiazol-2-yl)acrylamide] | < 1.25 | > 75 | 1.25 to 10 | > 75 |  |  |  | 
COc1cc(-c2cn(C)c(=O)c(C)c2C)cc(OC)c1CN(C)C1CCN(C(=O)/C(C#N)=C/C23CC(C2)C3)CC1 (mixture of isomers) [Compound B187, (E/Z)-3-(bicyclo[1.1.1]pentan-1-yl)-2-(4-((2,6-dimethoxy-4-(1,4,5-trimethyl-6-oxo-1,6-dihydropyridin-3-yl)benzyl)(methyl)amino)piperidine-1-carbonyl)acrylonitrile] | 1.25 to 10 | > 75 | 1.25 to 10 | > 75 |  |  |  | 
COc1cc(-c2cn(C)c(=O)c(C)c2C)cc(OC)c1CN1CCN(Cc2cccc3c2CCN(C(=O)/C(C#N)=C/C2(C)CC2)C3C)CC1 (mixture of isomers) [Compound C27, (E/Z)-2-(5-((4-(2,6-dimethoxy-4-(1,4,5-trimethyl-6-oxo-1,6-dihydropyridin-3-yl)benzyl)piperazin-1-yl)methyl)-1-methyl-1,2,3,4-tetrahydroisoquinoline-2-carbonyl)-3-(1-methylcyclopropyl)acrylonitrile] | > 1000 | 40 to 70 | > 1000 | 40 to 70 |  |  |  | 
COc1cc(-c2cn(C)c(=O)c3cnccc23)cc(OC)c1CN1CCN(Cc2cccc3c2CCN(C(=O)/C(C#N)=C/c2nccs2)[C@@H]3C)CC1 (single isomer, unassigned) [Compound A14, (E/Z)-2-(5-((4-(2,6-dimethoxy-4-(2-methyl-1-oxo-1,2-dihydro-2,7-naphthyridin-4-yl)benzyl)piperazin-1-yl)methyl)-1-methyl-1,2,3,4-tetrahydroisoquinoline-2-carbonyl)-3-(thiazol-2-yl)acrylonitrile] |  |  |  |  | 40 to 70 | 40 to 70 | < 1.25 | DC50 (BRD9 [1]; [8]): < 1.25 nM
COc1cc(-c2cn(C)c(=O)c3cnccc23)cc(OC)c1CN1CCN(Cc2cccc3c2CCN(C(=O)/C(C#N)=C/c2nccs2)[C@H]3C)CC1 (single isomer, unassigned) [Compound A15] |  |  |  |  | 40 to 70 | 40 to 70 | 1.25 to 10 | DC50 (BRD9 [1]; [8]): < 1.25 nM
COc1cc(-c2cn(C)c(=O)c3cnccc23)cc(OC)c1CN1CCN(Cc2cccc3c2CCN(C(=O)/C(C#N)=C/C(C)(C)C)[C@@H]3C)CC1 (single isomer, unassigned) [Compound A25, (E/Z)-2-(5-((4-(2,6-dimethoxy-4-(2-methyl-1-oxo-1,2-dihydro-2,7-naphthyridin-4-yl)benzyl)piperazin-1-yl)methyl)-1-methyl-1,2,3,4-tetrahydroisoquinoline-2-carbonyl)-4,4-dimethylpent-2-enenitrile] |  |  |  |  | 40 to 70 | 40 to 70 | < 1.25 | 
COc1cc(-c2cn(C)c(=O)c(C)c2C)cc(OC)c1CN1CCCN(Cc2cccc3c2CCN(C(=O)/C(C#N)=C/C2(F)CC2)C3C)CC1 (single isomer, unassigned) [Compound A69, (E/Z)-2-(5-((4-(2,6-dimethoxy-4-(1,4,5-trimethyl-6-oxo-1,6-dihydropyridin-3-yl)benzyl)-1,4-diazepan-1-yl)methyl)-1-methyl-1,2,3,4-tetrahydroisoquinoline-2-carbonyl)-3-(1-fluorocyclopropyl)acrylonitrile] |  |  |  |  | 40 to 70 | > 75 | 1.25 to 10 | DC50 (BRD9 [1]; [8]): 25 to 300 nM
COc1cc(-c2cn(C)c(=O)c(C)c2C)cc(OC)c1CN1CCC2(CC1)CN(c1cccc(C3CCCN3C(=O)C(C#N)=CC(C)(C)C)c1)C2 (single isomer, unassigned) [Compound B43, 2-(2-(3-(7-(2,6-dimethoxy-4-(1,4,5-trimethyl-6-oxo-1,6-dihydropyridin-3-yl)benzyl)-2,7-diazaspiro[3.5]nonan-2-yl)phenyl)pyrrolidine-1-carbonyl)-4,4-dimethylpent-2-enenitrile] | 1.25 to 10 | 40 to 70 | < 1.25 | 40 to 70 |  |  |  | 
COc1cc(-c2cn(C)c(=O)c(C)c2C)cc(OC)c1CN1CCN(c2cccc3c2CCN(C(=O)/C(C#N)=C/c2cccc(Br)n2)C3C)CC1 (single isomer, unassigned) [Compound C28, (E/Z)-3-(6-bromopyridin-2-yl)-2-(5-(4-(2,6-dimethoxy-4-(1,4,5-trimethyl-6-oxo-1,6-dihydropyridin-3-yl)benzyl)piperazin-1-yl)-1-methyl-1,2,3,4-tetrahydroisoquinoline-2-carbonyl)acrylonitrile] | 25 to 1000 | 40 to 70 |  | 25 to 40 |  |  |  | 
COc1cc(-c2cn(C)c(=O)c(C)c2C)cc(OC)c1CN1CCC(Oc2cccc3c2CCN(C(=O)/C(C#N)=C/c2cccc(C(F)(F)F)n2)C3C)CC1 (centres unmarked) [B22] |  | 40 to 70 |  | > 75 |  |  |  | 
COc1cc(-c2cn(C)c(=O)c(C)c2C)cc(OC)c1CN(C)C(=O)/C(C#N)=C/c1cccc(Br)n1 [BRD9ab, (E/Z)-3-(6-bromopyridin-2-yl)-2-cyano-N-(2,6-dimethoxy-4-(1,4,5-trimethyl-6-oxo-1,6-dihydropyridin-3-yl)benzyl)-N-methylacrylamide] |  |  |  |  |  |  |  | Dmax (BRD9 [1]; [10]): 50 to 70%; DC50 (BRD9 [1]; [11]): < 25 nM; DC50 (BRD9 [2]; [12]): < 25 nM
COc1cc(-c2cn(C)c(=O)c(C)c2C)cc(OC)c1CN1CCN(C(=O)/C(C#N)=C/C(C)(C)C)CC12CC2 [BRD9f, (E/Z)-2-(4-(2,6-dimethoxy-4-(1,4,5-trimethyl-6-oxo-1,6-dihydropyridin-3-yl)benzyl)-4,7-diazaspiro[2.5]octane-7-carbonyl)-4,4-dimethylpent-2-enenitrile] |  |  |  |  |  |  |  | Dmax (BRD9 [1]; [10]): 50 to 70%; DC50 (BRD9 [1]; [11]): < 25 nM; Dmax (BRD9 [2]; [13]): 50 to 70%; DC50 (BRD9 [2]; [12]): < 25 nM
COc1cc(-c2cn(C)c(=O)c(C)c2C)cc(OC)c1C(=O)N(C)C1CCN(C(=O)/C(C#N)=C/C(C)(C)C)CC1 [BRD9u] |  |  |  |  |  |  |  | Dmax (BRD9 [1]; [10]): 30 to 50%; DC50 (BRD9 [1]; [11]): < 25 nM; Dmax (BRD9 [2]; [13]): 30 to 50%
COc1cc(-c2cn(C)c(=O)c3ccsc23)cc(OC)c1CN1CCN(C(=O)/C(C#N)=C/C(C)(C)C)CC1 [BRD9w, (E/Z)-2-(4-(2,6-dimethoxy-4-(5-methyl-4-oxo-4,5-dihydrothieno[3,2-c]pyridin-7-yl)benzyl)piperazine-1-carbonyl)-4,4-dimethylpent-2-enenitrile] |  |  |  |  |  |  |  | Dmax (BRD9 [1]; [10]): > 70%; DC50 (BRD9 [1]; [11]): < 25 nM; Dmax (BRD9 [2]; [13]): > 70%; DC50 (BRD9 [2]; [12]): < 25 nM
COc1cc(-c2cn(C)c(=O)c3cnccc23)cc(OC)c1CN1CCC(N(C)c2cccc3c2CCN(C(=O)/C(C#N)=C/C(C)(C)C)C3C)CC1 (centres unmarked) [Compound A30] |  |  |  |  | < 50 | 40 to 70 | 1.25 to 10 | 
COc1cc(-c2cn(C)c(=O)c3cnccc23)cc(OC)c1CN1C2CCC1CN(Cc1cccc3c1CCN(C(=O)/C(C#N)=C/C(C)(C)C)C3C)C2 (centres unmarked) [Compound A49] |  |  |  |  | 40 to 70 | 40 to 70 | 1.25 to 10 | DC50 (BRD9 [1]; [8]): < 1.25 nM
COc1cc(-c2cn(C)c(=O)c(C)c2C)cc(OC)c1CN1CCN(C(=O)c2cccc(C3CCCN3C(=O)/C(C#N)=C/c3nccs3)c2)CC1 (centres unmarked) [Compound B23] | 1.25 to 10 | > 75 | 10 to 25 | 70 to 75 |  |  |  | 
COc1cc(-c2cn(C)c(=O)c(C)c2C)cc(OC)c1CN1CCN(Cc2cccc(C3CCCN3C(=O)/C(C#N)=C/c3cccc(C(F)(F)F)n3)c2)CC1 (centres unmarked) [Compound B26] | < 1.25 | > 75 | 1.25 to 10 | > 75 |  |  |  | 
COc1ccc([C@@H]2CN(C(=O)/C(C#N)=C/c3nccs3)C[C@H]2C(=O)N2CCN(Cc3c(OC)cc(-c4cn(C)c(=O)c(C)c4C)cc3OC)CC2)cc1 [Compound B27] | 1.25 to 10 | > 75 |  | 40 to 70 |  |  |  | 
